Test system: Colo205 human colon carcinoma cell line
Assay: In vitro tumor cell proliferation assay (MTS, CellTiter 96 Aqueous One Solution)
Type: cell-based
Details: COLO 205, Colo205 cells, 72 hours compound exposure, MTS absorbance at 490 nm, read-out: IC50 (concentration of test compound required to inhibit proliferation of 50% of the cells)
How it was run: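 Proliferation measured as MTS tetrazolium reduction (490 nm) after 72 h compound exposure at 37 °C. Cells plated at 2000 per well in serum-supplemented RPMI-1640; duplicate 5-point dilutions topping out at 10-20 μM. Percent inhibition versus untreated and cell-free wells, IC50 derived by linear regression.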

SMILES | IC50
O=C(O)c1cn(-c2ccc(CN3CCCC3)nc2)c2c(Cl)c(N3CCN(c4ccc(F)cc4)CC3)c(F)cc2c1=O [Example 37, 8-chloro-6-fluoro-7-[4-(4-fluorophenyl)-piperazin-1-yl]-4-oxo-1-[6-(pyrrolidin-1-ylmethyl)pyridin-3-yl]-1,4-dihydroquinoline-3-carboxylic acid] | < 500 nM
CON(C)Cc1ccc(-n2cc(C(=O)O)c(=O)c3cc(F)c(N4CCN(c5ccccn5)CC4)c(Cl)c32)cc1 [Example 49, 8-chloro-6-fluoro-1-(4-{[methoxy(methyl)-amino]methyl}phenyl)-4-oxo-7-(4-pyridin-2-ylpiperazin-1-yl)-1,4-dihydroquinoline-3-carboxylic acid] | 2000 to 20000 nM
CCN(CC)Cc1ccc(-n2cc(C(=O)O)c(=O)c3cc(F)c(N4CCN(c5ccccn5)CC4)c(OC(F)(F)Cl)c32)cc1 [Example 159, 8-[chloro(difluoro)methoxy]-1-{4-[(diethylamino)methyl]phenyl}-6-fluoro-4-oxo-7-(4-pyridin-2-ylpiperazin-1-yl)-1,4-dihydroquinoline-3-carboxylic acid] | < 500 nM
O=C(O)c1cn(-c2ccc(CN3CCCC3)cc2)c2c(OC(F)(F)Cl)c(N3CCN(c4ccc(Cl)cc4)CC3)c(F)cc2c1=O [Example 148, 8-[chloro(difluoro)methoxy]-7-[4-(4-chlorophenyl)piperazin-1-yl]-6-fluoro-4-oxo-1-[4-(pyrrolidin-1-ylmethyl)phenyl]-1,4-dihydroquinoline-3-carboxylic acid] | < 500 nM
O=C(O)c1cn(-c2ccc(CNCC3CC3)cc2)c2c(Cl)c(N3CCN(c4ccccn4)CC3)c(F)cc2c1=O [Example 170, 8-chloro-1-(4-{[(cyclopropylmethyl)amino]methyl}phenyl)6-fluoro-4-oxo-7-(4-pyridin-2-ylpiperazin-1-yl)-1,4-dihydroquinoline-3-carboxylic acid] | < 500 nM
